Assay results taken from US20240374557A1, “BETA ADRENERGIC RECEPTOR COMPOSITIONS AND METHODS OF USE THEREOF” (THE BOARD OF REGENTS OF THE UNIVERSITY OF TEXAS SYSTEM, priority 2021, published 2024).

Legend:
[1] = test system: Adrb1, Ppargc1a and Ucp1 mRNA expression in eWAT, iWAT and BAT; assay: Quantitative real-time PCR of adipose depots after CL-316243 injection; format: in vivo, mice; settings: CL-316243 0.1 mg/kg
Procedure: Quantitative real-time PCR. […] Total mRNA was isolated from eWAT, iWAT and interscapular BAT using the Aurum™ Total RNA Fatty and Fibrous Tissue Kit (Bio-Rad, 732-6830). RNA concentration was estimated from absorbance at 260 nm. cDNA synthesis was performed using the iScript Advanced cDNA Synthesis Kit (Bio-Rad, 172-5038). mRNA extraction and cDNA synthesis were performed following the manufacturer's instructions. cDNA was diluted in DNase-free water before quantification by real-time PCR. Relative quantification of gene expression was performed on diluted cDNA in duplicate samples using a CFX384 Touch™ real-time PCR (Bio-Rad). Fold differences in targeted mRNA expression were calculated using the 2-delta cycle threshold method and data were normalized to beta-microglobulin (B2m) expression. TaqMan gene expression assays for Adrb1 (Mm00431701_s1), B2m (Mm00437762_m1), Ppargc1a (Mm01208835_m1), and Ucp1 (Mm01244861_m1) were purchased from ThermoFisher Scientific.

[2] = test system: Ad-Adrb1KO mice and littermate controls; assay: Blood glucose over 60 minutes after CL-316243 dose range; settings: for reducing glycemia: 0.001 mg/kg
Procedure: Tail vein blood glucose levels were then monitored using a glucometer (Bayer's Contour Blood Glucose Monitoring System.
(§3) Treatment with CL 316, 243. Mice were fasted for 2 hours (0800-1000) and then given an injection of the ADRB3 agonist CL 316,243 (“CL”, 0.001-1 mg/kg) or vehicle (saline). In some cohorts, human recombinant insulin (Eli Lilly) or D-glucose (Sigma 49163-100ML) was co-administrated with CL.

[3] = test system: Ad-Adrb1KO mice and littermate controls; assay: Co-administration of CL-316243 with insulin or glucose: blood glucose, plasma insulin, NEFA; settings: for increase in plasma insulin levels: CL-316243 0.1 mg/kg co-administered with glucose, 30 minutes after vs before
Procedure: as §3
Evaluation of insulin and NEFA levels. Blood from tail vein was collected before and 30 minutes after co-administration of CL with D-glucose into EDTA tubes. Plasma was isolated by centrifugation (4000 g×10 minutes at 4° C.). Plasma insulin (Mouse Ultrasensitive Insulin ELISA, ALPCO, 80-INSMSU-E01) and NEFA (FUJIFILM Wako Diagnostics-NEFA Reagent, 999-34691, 995-34791, 991-34891, 993-35191) levels were measured following manufacturer recommendations.

ADRB3 = settings: cited from earlier work
[4] = test system: Ad-Adrb1KO mice and littermate controls; assay: Acute CL-316243 injection: body weight, blood glucose, BAT mass and BAT histology; format: in vivo
Procedure: Physiological relevance of crosstalk between ADRB1 and ADRB3 in adipocytes was assessed. […] Four hours after CL-316243 injection, mice were sacrificed and BAT depots were dissected.
Treatment with CL 316, 243.
Histology. […] Samples were then dehydrated, embedded in paraffin, and cut into […] sections. Sections were stained with hematoxylin and eosin (H&E) to perform general histology. All pictures were taken at a magnification of 20× on a Zeiss Axioskop 2 microscope connected to a digital camera (AxioCam; Zeiss, Thornwood, NY). Only the sharpness, contrast, and brightness were adjusted.

[5] = test system: C57BL/6N mice on 42% high fat diet; settings: 4 weeks, compared to placebo; mirabegron 8 mg/kg daily, atenolol 60 mg/kg per day
Procedure: (§1) In brief, three cohorts of male C57BL/6N mice, including a total of 100 mice, were used in these studies. Five-week-old mice were placed on a 42% high fat diet for 4 weeks. The treatments were provided for 4 weeks, during which time mice were maintained on the 42% high fat diet.
(§2) Mirabegron, an ADRB3 agonist, was administered at an 8 mg/kg daily dose. Atenolol is an ADRB1 antagonist and was administered to the mice at, on average, 60 mg/kg per day. Mirabegron or its buffer (5% PEG 400; placebo) were administered to the mice daily by gavage for 4 weeks. Mice were also given ad libitum access to a water bottle or a water bottle containing atenolol. […] Oral glucose tolerance testing was performed on overnight fasted mice administered 5 μL 60% glucose solution per g BW using a gavage tube; blood glucose levels were determined with a glucometer using blood from tail nicks at times 0, 15, 30, 60 and 120 minutes. Blood pressure measurements were obtained using a CODA-HT8 High Throughput Noninvasive Blood Pressure system with 8 activated channels for use with mice and rats from Kent Scientific. Methods and statistical analysis were performed as described above.

[6] = test system: C57BL/6N mice on 42% high fat diet; assay: 4-week treatment of high fat diet fed mice: body weight, body composition, cholesterol, oral glucose tolerance; format: in vivo; settings: compared to placebo
Procedure: as §1, §2

[7] = every adipose depot, independent of the genotype
[8] = CL-316243 0.1 mg/kg, Ad-Adrb1KO mice
[9] = 4 weeks, mirabegron 8 mg/kg daily gavage, atenolol 60 mg/kg per day in water

C[C@H](Cc1ccc2c(c1)OC(C(=O)[O-])(C(=O)[O-])O2)NC[C@H](O)c1cccc(Cl)c1.[Na+].[Na+] [CL-316243, 5-[(2R)-2-[[(2R)-2-(3-Chlorophenyl)-2-hydroxyethyl]amino]propyl]-1,3-benzodioxole-2,2-dicarboxylic acid disodium salt]
Adrb1 mRNA expression (significantly reduced or not) ([1]; BAT, littermate controls): not
Adrb1 mRNA expression ([1]; eWAT, littermate controls): significantly reduced
Ppargc1a mRNA expression [1, 7]: increase
Ucp1 mRNA expression [1, 7]: increase
Adrb1 mRNA expression (significantly reduced or not) ([1]; iWAT, littermate controls): not in iWAT
reducing glycemia ([2]; Ad-Adrb1KO mice): still effective
reducing glycemia ([2]; littermate controls): not littermate controls
blood glucose ([2]; both genotypes, even at low dose of 0.01 mg/kg, 60-minute period): glucose lowering effect
increase in plasma insulin levels ([3]; Ad-Adrb1KO mice): 43 fold
increase in plasma insulin levels ([3]; littermate controls): 12 fold
glucose clearance ([3]; CL-316243 0.1 mg/kg co-administrated with glucose, Ad-Adrb1KO mice): drastically improved
insulin sensitivity ([3]; CL-316243 0.1 mg/kg in combination with insulin, Ad-Adrb1KO mice compared to control littermates): slight but significant improvement
plasma NEFA levels between Ad-Adrb1KO mice and littermate controls ([3]; CL-316243 co-administrated with glucose): no difference
selectivity for ADRB3 over ADRB1 and ADRB2 (ADRB3): over 10000 fold
EC50 (ADRB3; read-out: EC50 (ADRB3 agonist)): 3 nM
BAT mass [4, 8]: comparable to CL-316243-treated littermates
CL-316243-induced mobilization of intracellular triglycerides in BAT [4, 8]: markedly improved
lipid droplets in H&E-stained BAT ([4]; CL-316243 0.1 mg/kg, mice lacking Adrb1 in adipocytes): near-complete depletion
weight of the mice ([4]; acute CL-316243 0.1 mg/kg, Ad-Adrb1KO mice and littermate controls): did not significantly change
efficiency to reduce blood glucose levels (treatment x genotype) ([4]; acute CL-316243 0.1 mg/kg, Ad-Adrb1KO vs littermate controls): significant interaction

Nc1nc(CC(=O)Nc2ccc(CCNC[C@H](O)c3ccccc3)cc2)cs1 [mirabegron]
diastolic blood pressure (DBP) [5]: elevated
mean arterial blood pressure (MBP) [5]: elevated
systolic blood pressure (SBP) [5]: elevated
LDL cholesterol [6, 9]: significant decreases
epididymal fat mass [6, 9]: significant decreases
total body weight [6, 9]: significant decreases
total cholesterol [6, 9]: significant decreases
total fat mass [6, 9]: significant decreases
glucose tolerance (blood glucose area under the curve) ([6]; oral glucose tolerance test after 4 weeks): significant improvements
